Assay results: patent publication US12570659B2, “Bicyclic heteroaryl compounds useful as IRAK4 inhibitors” (BRISTOL-MYERS SQUIBB COMPANY, priority 2019, dated 2026)

Key:
JAK3 kinase = JAK3 kinase (Homo sapiens (Human), UniProt P52333); assay: JAK3 Homogeneous Time Resolved Fluorescence (HTRF) Assay; format: binding; settings: for IC50: competition binding with fluorescein-labeled ATP competitive probe; for Ratio of JAK3 IC50 to IRAK4 IC50: selectivity for IRAK4 over JAK3
In short: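 IC50 reflects displacement of a fluorescein-labeled ATP-site probe (at its Kd) from 1 nM tagged JAK3, detected via 0.2 nM Tb anti-His or anti-GST antibody. One-hour incubation; 495 and 520 nm emission ratios, background-subtracted, normalized to maximum signal; 11-point percent inhibition, 4-parameter logistic.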

IRAK4 = IRAK4 (Homo sapiens (Human), UniProt Q9NWZ3); assay: IRAK4 Inhibition Assay; format: biochemical; settings: ATP 500 μM; IRAK4 0.6 nM; 60 min room temperature
IRAK4, sequence (Q9NWZ3 whole entry, species assumed): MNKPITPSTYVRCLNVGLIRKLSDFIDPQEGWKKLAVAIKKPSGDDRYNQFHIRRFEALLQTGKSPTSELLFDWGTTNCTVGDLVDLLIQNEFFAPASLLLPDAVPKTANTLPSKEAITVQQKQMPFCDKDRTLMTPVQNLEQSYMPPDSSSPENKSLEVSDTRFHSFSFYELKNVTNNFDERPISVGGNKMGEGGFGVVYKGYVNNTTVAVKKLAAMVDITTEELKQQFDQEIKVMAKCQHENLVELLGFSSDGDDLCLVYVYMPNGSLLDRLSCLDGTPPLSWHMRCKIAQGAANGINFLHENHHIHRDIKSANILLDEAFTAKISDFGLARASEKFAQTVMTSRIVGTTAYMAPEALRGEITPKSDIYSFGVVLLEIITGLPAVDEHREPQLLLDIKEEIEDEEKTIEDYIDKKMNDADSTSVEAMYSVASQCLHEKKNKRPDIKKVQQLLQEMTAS
In short: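 Phosphorylated and unphosphorylated fluorescent substrate were resolved by microfluidic electrophoresis after termination with 35 mM EDTA. The room-temperature kinase reaction lasted 60 min after IRAK4, substrates and test compound were combined; vehicle-only defined 0% and no-enzyme 100% inhibition.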

JAK3 kinase, sequence (P52333 whole entry): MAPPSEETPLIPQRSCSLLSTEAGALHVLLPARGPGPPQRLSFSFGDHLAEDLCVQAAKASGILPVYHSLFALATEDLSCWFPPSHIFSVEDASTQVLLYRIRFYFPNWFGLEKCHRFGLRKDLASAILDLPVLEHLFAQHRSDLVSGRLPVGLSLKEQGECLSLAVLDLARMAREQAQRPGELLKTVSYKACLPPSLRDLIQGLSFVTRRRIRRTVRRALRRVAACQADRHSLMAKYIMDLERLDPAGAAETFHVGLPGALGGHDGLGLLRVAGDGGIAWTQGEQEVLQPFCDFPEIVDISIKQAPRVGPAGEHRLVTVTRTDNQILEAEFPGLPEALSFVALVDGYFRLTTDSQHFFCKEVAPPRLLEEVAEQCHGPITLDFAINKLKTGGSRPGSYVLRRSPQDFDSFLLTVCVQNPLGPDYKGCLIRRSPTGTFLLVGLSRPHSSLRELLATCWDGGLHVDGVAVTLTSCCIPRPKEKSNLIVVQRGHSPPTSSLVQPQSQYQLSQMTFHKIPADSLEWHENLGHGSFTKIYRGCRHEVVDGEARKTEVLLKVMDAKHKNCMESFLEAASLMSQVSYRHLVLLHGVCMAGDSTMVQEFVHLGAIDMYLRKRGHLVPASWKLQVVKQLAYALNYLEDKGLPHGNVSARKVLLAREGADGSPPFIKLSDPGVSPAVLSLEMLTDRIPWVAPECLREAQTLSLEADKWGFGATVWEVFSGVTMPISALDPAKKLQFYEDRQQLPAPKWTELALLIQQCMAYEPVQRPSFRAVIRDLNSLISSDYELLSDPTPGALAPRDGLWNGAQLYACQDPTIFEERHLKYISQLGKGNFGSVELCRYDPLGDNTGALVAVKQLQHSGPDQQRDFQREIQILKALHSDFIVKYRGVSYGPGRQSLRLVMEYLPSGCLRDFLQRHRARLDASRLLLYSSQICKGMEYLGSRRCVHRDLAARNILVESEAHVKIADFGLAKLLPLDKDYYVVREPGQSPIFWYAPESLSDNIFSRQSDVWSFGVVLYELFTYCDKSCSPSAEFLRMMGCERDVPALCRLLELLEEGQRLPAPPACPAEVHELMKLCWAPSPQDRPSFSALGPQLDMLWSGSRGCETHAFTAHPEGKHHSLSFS

SMILES	IC50 (JAK3 kinase) [nM]	Ratio of JAK3 IC50 to IRAK4 IC50 (JAK3 kinase)	IC50 (IRAK4) [nM]
CC(C)Nc1c(C(=O)NC[C@@H](F)C(C)(C)O)cnn2cc(-c3ccnn3C)cc12 [Example 33, (R)—N-(2-fluoro-3-hydroxy-3-methylbutyl)-4-(isopropylamino)-6-(1-methyl-1H-pyrazol-5-yl) pyrrolo[1,2-b]pyridazine-3-carboxamide]	> 50000	>1923	26
COc1ncccc1-c1cc2ncc(C(=O)NC[C@@H](F)C(C)(C)O)c(NC(C)C)n2n1 [Example 143, (R)—N-(2-fluoro-3-hydroxy-3-methylbutyl)-7-(isopropylamino)-2-(2-methoxypyridin-3-yl)pyrazolo[1,5-a]pyrimidine-6-carboxamide]	> 10000	>16	630
CC(C)(O)[C@H](F)CNC(=O)c1cnn2cc(-c3cccnc3)cc2c1NC1CCOCC1 [Example 6, (R)—N-(2-fluoro-3-hydroxy-3-methylbutyl)-6-(pyridin-3-yl)-4-((tetrahydro-2H-pyran-4-yl)amino) pyrrolo[1,2-b] pyridazine-3-carboxamide]	> 50000	>926	54
CC(C)Nc1c(C(=O)NC[C@@H](F)C(C)(C)O)cnc2cc(-c3ccncc3F)nn12 [Example 137, (R)—N-(2-fluoro-3-hydroxy-3-methylbutyl)-2-(3-fluoropyridin-4-yl)-7-(isopropylamino) pyrazolo[1,5-a]pyrimidine-6-carboxamide]	> 10000	>1190	8.4
CC(C)Nc1c(C(=O)NC[C@@H](F)C(C)(C)O)cnc2cc(-c3cccc(C#N)c3)nn12 [Example 133, (R)-2-(3-cyanophenyl)-N-(2-fluoro-3-hydroxy-3-methylbutyl)-7-(isopropylamino)pyrazolo[1,5-a] pyrimidine-6-carboxamide]	> 2000	>15	130
CC(C)Nc1c(C(=O)NC[C@@H](F)C(C)(C)O)cnc2cc(-c3ccccc3F)nn12 [Example 135, (R)—N-(2-fluoro-3-hydroxy-3-methylbutyl)-2-(2-fluorophenyl)-7-(isopropylamino)pyrazolo[1,5-a]pyrimidine-6-carboxamide]	> 10000	>455	22
CC(C)Nc1c(C(=O)NC[C@@H](F)C(C)(C)O)cnc2cc(-c3cccnc3)nn12 [Example 115, (R)—N-(2-fluoro-3-hydroxy-3-methylbutyl)-7-(isopropylamino)-2-(pyridin-3-yl) pyrazolo[1,5-a]pyrimidine-6-carboxamide]	> 10000	>400	25
CC(C)Nc1c(C(=O)NC[C@@H](F)C(C)(C)O)cnn2cc(-c3ccccn3)cc12 [Example 16, (R)—N-(2-fluoro-3-hydroxy-3-methylbutyl)-4-(isopropylamino)-6-(pyridin-2-yl)pyrrolo[1,2-b]pyridazine-3-carboxamide]	> 50000	>2941	17
CC(C)Nc1c(C(=O)NCCNS(C)(=O)=O)cnc2cc(-c3ccncc3F)nn12 [Example 161, 2-(3-fluoropyridin-4-yl)-7-(isopropylamino)-N-(2-(methylsulfonamido)ethyl) pyrazolo[1,5-a]pyrimidine-6-carboxamide]	> 10000	>63	160
COc1ccc(-c2cc3c(NC4CCOCC4)c(C(=O)NC[C@@H](F)C(C)(C)O)cnn3c2)cn1 [Example 10, (R)—N-(2-fluoro-3-hydroxy-3-methylbutyl)-6-(6-methoxypyridin-3-yl)-4-((tetrahydro-2H-pyran-4-yl)amino)pyrrolo[1,2-b]pyridazine-3-carboxamide]	> 10000	>175	57
CC(C)Nc1c(C(=O)NC[C@@H](F)C(C)(C)O)cnn2cc(Nc3ccncn3)cc12 [Example 43, (R)—N-(2-fluoro-3-hydroxy-3-methylbutyl)-4-(isopropylamino)-6-(pyrimidin-4-ylamino) pyrrolo[1,2-b] pyridazine-3-carboxamide]	> 50000	>617	81
CC(C)Nc1c(C(=O)NCCN2CCOCC2)cnn2cc(-c3ccncc3F)nc12 [Example 106, 2-(3-fluoropyridin-4-yl)-8-(isopropylamino)-N-(2-morpholinoethyl)imidazo[1,2-b]pyridazine-7-carboxamide]	> 50000	>2273	22
CC(C)Nc1c(C(=O)NC[C@@H](F)C(C)(C)O)cnc2cc(-c3ccccc3)nn12 [Example 128, (R)—N-(2-fluoro-3-hydroxy-3-methylbutyl)-7-(isopropylamino)-2-phenylpyrazolo[1,5-a]pyrimidine-6-carboxamide]	> 10000	>175	57
CC(C)(O)CCNc1c(C(=O)NC[C@@H](F)C(C)(C)O)cnn2cc(-c3ccc(C#N)nc3)cc12 [Example 27, (R)-6-(6-cyanopyridin-3-yl)-N-(2-fluoro-3-hydroxy-3-methylbutyl)-4-((3-hydroxy-3-methylbutyl)amino)pyrrolo[1,2-b]pyridazine-3-carboxamide]	> 50000	>208	240
CC(C)Nc1c(C(=O)NC[C@@H](F)C(C)(C)O)cnn2cc(Nc3cc(C#N)ccn3)cc12 [Example 41, (R)-6-((4-cyanopyridin-2-yl)amino)-N-(2-fluoro-3-hydroxy-3-methylbutyl)-4-(isopropylamino)pyrrolo[1,2-b]pyridazine-3-carboxamide]	> 50000	>81	620
COc1cc(-c2cc3c(NC(C)C)c(C(=O)N[C@H]4CC[C@H](O)CC4)cnn3c2)c(F)cn1 [Example 57, 6-(5-fluoro-2-methoxypyridin-4-yl)-N-((1r,4r)-4-hydroxycyclohexyl)-4-(isopropylamino)pyrrolo[1,2-b]pyridazine-3-carboxamide]	> 50000	>2500	20
CC(C)Nc1c(C(=O)NC[C@@H](F)C(C)(C)O)cnn2cc(-c3cnc(N)nc3)cc12 [Example 15, (R)-6-(2-aminopyrimidin-5-yl)-N-(2-fluoro-3-hydroxy-3-methylbutyl)-4-(isopropylamino) pyrrolo[1,2-b]pyridazine-3-carboxamide]	> 50000	>2273	22
Cc1cc(F)ncc1-c1cc2c(NC(C)C)c(C(=O)N[C@H]3CC[C@H](C(=O)N4CCOCC4)CC3)cnn2c1 [Example 83, 6-(6-fluoro-4-methylpyridin-3-yl)-4-(isopropylamino)-N-((1r,4r)-4-(morpholine-4-carbonyl)cyclohexyl)pyrrolo[1,2-b]pyridazine-3-carboxamide]	~49000	~2130	23
CC(=O)N[C@H]1CC[C@H](NC(=O)c2cnn3cc(-c4c(C)ccnc4F)cc3c2NC(C)C)CC1 [Example 66, N-((1r,4r)-4-acetamidocyclohexyl)-6-(2-fluoro-4-methylpyridin-3-yl)-4-(isopropylamino)pyrrolo[1,2-b]pyridazine-3-carboxamide]	18000	305	59
